Data as given in patent US12442042B2, “Epigenomic profiling reveals the somatic promoter landscape of primary gastric adenocarcinoma” (AGENCY FOR SCIENCE, TECHNOLOGY AND RESEARCH, priority 2016, dated 2025).

Tested on: PBMCs
Experiment: EpiMAX assay: cytokine multiplex on supernatants of PBMCs stimulated with peptide pools
Assay type: cell-based, human
Procedure: A set of peptides for 15 representative alternative promoters was purchased from GenScript (GenScript). Peptide sequences and composition of peptide pools for each alternative promoter are described in Table 3. Control peptide pools for human Actin were purchased from JPT (PM-ACTS, PepMix™ Human (Actin) JPT). Peripheral blood mononuclear cells (PBMCs) were obtained from 9 healthy volunteers of whom 8 PBMC samples were HLA-typed (Table 3).
PBMCs were labelled with 1 μM CFSE (Life Technologies, Thermo Fisher Scientific) and cultured at a density of 200,000 cells per well in complete culture medium (cRPMI comprising RPMI 1640 medium (Gibco, Thermo Fisher Scientific), 15 mM HEPES (Gibco), 1% non-essential amino acid (Gibco), 1 mM sodium pyruvate (Gibco), 1% penicillin/streptomycin (Gibco), 2 mM L-glutamine (Gibco), 50 μM β2-mercaptoethanol (Sigma, Merck), and 10% heat-inactivated FCS (Hyclone)) for 5 days. Individual peptide pools of each alternative promoter were added at the start of the culture at a concentration of 1 μg/ml for each peptide. At the end of day 5, cells were stained with LIVE/DEAD® fixable near-IR dead cell stain kit (Life Technologies), and labelled with CD4-BUV737 (BD), CD8-PacificBlue (BD), CD3-PE (BioLegend), CD19-PE/TexasRed (Beckman), and CD56-APC (BD). Analysis of T cell proliferation by CFSE dilution was performed by flow cytometry using a LSRII (BD). In addition, magnetic bead-based cytokine multiplex analysis (human cytokine panel 1, Millipore, Merck) was performed on cell culture supernatants to measure secreted cytokine levels.

[1] = Donor 1 PBMCs stimulated with peptide pool
[2] = Donor 2 PBMCs stimulated with peptide pool
[3] = Donor 3 PBMCs stimulated with peptide pool
[4] = Donor 4 PBMCs stimulated with peptide pool
[5] = Donor 5 PBMCs stimulated with peptide pool
[6] = Donor 6 PBMCs stimulated with peptide pool
[7] = Donor 7 PBMCs stimulated with peptide pool
[8] = Donor 8 PBMCs stimulated with peptide pool
[9] = Donor 9 PBMCs stimulated with peptide pool

## Actin
[1]
  Analyte concentration GM-CSF: 19.57 pg/mL
  Analyte concentration IFNg: 147.18 pg/mL
  Analyte concentration IL-2: 34.21 pg/mL
  Analyte concentration IL-3: 1.46 pg/mL
  Analyte concentration IL-4: 0.03 pg/mL
  Analyte concentration IL-7: 0.085 pg/mL
  Analyte concentration IL-9: 1.22 pg/mL
  Analyte concentration IL-10: 10.1 pg/mL
  Analyte concentration IL-13: 14.2 pg/mL
  Analyte concentration IL-15: 0.925 pg/mL
  Analyte concentration IL-17A: 0.02 pg/mL
  Analyte concentration TNFa: 101.44 pg/mL
  Analyte concentration sCD40L: 0.78 pg/mL
  Fold change of total cytokine response (normalized against Actin control): 1.00
  Total analytes: 331.40 pg/mL
[2]
  Analyte concentration GM-CSF: 15.58 pg/mL
  Analyte concentration IFNg: 7.71 pg/mL
  Analyte concentration IL-2: 11.28 pg/mL
  Analyte concentration IL-3: 0.76 pg/mL
  Analyte concentration IL-4: 0.03 pg/mL
  Analyte concentration IL-7: 1.73 pg/mL
  Analyte concentration IL-9: 1.22 pg/mL
  Analyte concentration IL-10: 5.29 pg/mL
  Analyte concentration IL-13: 13.75 pg/mL
  Analyte concentration IL-15: 0.925 pg/mL
  Analyte concentration IL-17A: 0.02 pg/mL
  Analyte concentration TNFa: 9.18 pg/mL
  Analyte concentration sCD40L: 1.81 pg/mL
  Fold change of total cytokine response (normalized against Actin control): 1.00
  Total analytes: 69.29 pg/mL
[3]
  Analyte concentration GM-CSF: 56.66 pg/mL
  Analyte concentration IFNg: 60.86 pg/mL
  Analyte concentration IL-2: 13.4 pg/mL
  Analyte concentration IL-3: 0.56 pg/mL
  Analyte concentration IL-4: 4.53 pg/mL
  Analyte concentration IL-7: 0.085 pg/mL
  Analyte concentration IL-9: 1.22 pg/mL
  Analyte concentration IL-10: 2.56 pg/mL
  Analyte concentration IL-13: 5.96 pg/mL
  Analyte concentration IL-15: 0.925 pg/mL
  Analyte concentration IL-17A: 2.89 pg/mL
  Analyte concentration TNFa: 20.69 pg/mL
  Analyte concentration sCD40L: 0.01 pg/mL
  Fold change of total cytokine response (normalized against Actin control): 1.00
  Total analytes: 170.35 pg/mL
[4]
  Analyte concentration GM-CSF: 0.66 pg/mL
  Analyte concentration IFNg: 0.01 pg/mL
  Analyte concentration IL-2: 1.27 pg/mL
  Analyte concentration IL-3: 0.005 pg/mL
  Analyte concentration IL-4: 0.03 pg/mL
  Analyte concentration IL-7: 0.085 pg/mL
  Analyte concentration IL-9: 1.22 pg/mL
  Analyte concentration IL-10: 0.18 pg/mL
  Analyte concentration IL-13: 0.99 pg/mL
  Analyte concentration IL-15: 0.925 pg/mL
  Analyte concentration IL-17A: 0.02 pg/mL
  Analyte concentration TNFa: 1.49 pg/mL
  Analyte concentration sCD40L: 0.01 pg/mL
  Fold change of total cytokine response (normalized against Actin control): 1.00
  Total analytes: 6.90 pg/mL
[5]
  Analyte concentration GM-CSF: 0.66 pg/mL
  Analyte concentration IFNg: 1.65 pg/mL
  Analyte concentration IL-2: 1.4 pg/mL
  Analyte concentration IL-3: 0.005 pg/mL
  Analyte concentration IL-4: 0.03 pg/mL
  Analyte concentration IL-7: 0.085 pg/mL
  Analyte concentration IL-9: 1.22 pg/mL
  Analyte concentration IL-10: 5.5 pg/mL
  Analyte concentration IL-13: 1.44 pg/mL
  Analyte concentration IL-15: 0.925 pg/mL
  Analyte concentration IL-17A: 0.02 pg/mL
  Analyte concentration TNFa: 3.08 pg/mL
  Analyte concentration sCD40L: 0.01 pg/mL
  Fold change of total cytokine response (normalized against Actin control): 1.00
  Total analytes: 16.03 pg/mL
[6]
  Analyte concentration GM-CSF: 18.18 pg/mL
  Analyte concentration IFNg: 135.48 pg/mL
  Analyte concentration IL-2: 11.03 pg/mL
  Analyte concentration IL-3: 0.5 pg/mL
  Analyte concentration IL-4: 0.03 pg/mL
  Analyte concentration IL-7: 0.085 pg/mL
  Analyte concentration IL-9: 1.22 pg/mL
  Analyte concentration IL-10: 4.66 pg/mL
  Analyte concentration IL-13: 8.77 pg/mL
  Analyte concentration IL-15: 0.925 pg/mL
  Analyte concentration IL-17A: 2.22 pg/mL
  Analyte concentration TNFa: 38.39 pg/mL
  Analyte concentration sCD40L: 0.01 pg/mL
  Fold change of total cytokine response (normalized against Actin control): 1.00
  Total analytes: 222.13 pg/mL
[7]
  Analyte concentration GM-CSF: 3.31 pg/mL
  Analyte concentration IFNg: 6.53 pg/mL
  Analyte concentration IL-2: 0.77 pg/mL
  Analyte concentration IL-3: 0.01 pg/mL
  Analyte concentration IL-4: 0.03 pg/mL
  Analyte concentration IL-7: 2.29 pg/mL
  Analyte concentration IL-9: 1.22 pg/mL
  Analyte concentration IL-10: 7.7 pg/mL
  Analyte concentration IL-13: 0.14 pg/mL
  Analyte concentration IL-15: 0.925 pg/mL
  Analyte concentration IL-17A: 0.02 pg/mL
  Analyte concentration TNFa: 48.35 pg/mL
  Analyte concentration sCD40L: 0.01 pg/mL
  Fold change of total cytokine response (normalized against Actin control): 1.00
  Total analytes: 71.31 pg/mL
[8]
  Analyte concentration GM-CSF: 0.66 pg/mL
  Analyte concentration IFNg: 1.12 pg/mL
  Analyte concentration IL-2: 1.9 pg/mL
  Analyte concentration IL-3: 0.22 pg/mL
  Analyte concentration IL-4: 0.03 pg/mL
  Analyte concentration IL-7: 0.085 pg/mL
  Analyte concentration IL-9: 1.22 pg/mL
  Analyte concentration IL-10: 3.61 pg/mL
  Analyte concentration IL-13: 0.03 pg/mL
  Analyte concentration IL-15: 0.925 pg/mL
  Analyte concentration IL-17A: 0.02 pg/mL
  Analyte concentration TNFa: 2.64 pg/mL
  Analyte concentration sCD40L: 0.58 pg/mL
  Fold change of total cytokine response (normalized against Actin control): 1.00
  Total analytes: 13.04 pg/mL
[9]
  Analyte concentration GM-CSF: 0.66 pg/mL
  Analyte concentration IFNg: 3.49 pg/mL
  Analyte concentration IL-2: 0.77 pg/mL
  Analyte concentration IL-3: 0.36 pg/mL
  Analyte concentration IL-4: 0.03 pg/mL
  Analyte concentration IL-7: 2.01 pg/mL
  Analyte concentration IL-9: 1.22 pg/mL
  Analyte concentration IL-10: 2.13 pg/mL
  Analyte concentration IL-13: 1.05 pg/mL
  Analyte concentration IL-15: 0.925 pg/mL
  Analyte concentration IL-17A: 0.58 pg/mL
  Analyte concentration TNFa: 56.18 pg/mL
  Analyte concentration sCD40L: 0.01 pg/mL
  Fold change of total cytokine response (normalized against Actin control): 1.00
  Total analytes: 69.42 pg/mL
